In paper PMC12844237, “A Novel Quinolone JH62 (E-2-(Tridec-4-en-1-yl)-quinolin-4(1H)-one) from Pseudomonas aeruginosa Exhibits Potent Anticancer Activity” (Microorganisms, 2025):

Assays:
[1] = tested on: A549: human lung cancer cell lines; experiment: WST-1 cell viability, A549; format: cell-based; settings: for IC50: WST-1; for reduced viability: 24 h
Source text: (§1) Different cells were utilized as follows: MEF: murine embryonic fibroblast (RRID: CVCL_L690); AML12: mouse liver cell lines (RRID: CVCL_0140); WI-38: human lung fibroblast cell lines (RRID: CVCL_0579); THLE-2: human liver epithelial cell lines (RRID: CVCL_3803); A549: human lung cancer cell lines (RRID: CVCL_0023); HEPG2: human liver cancer cell lines (RRID: CVCL_0027); HEP3B: human hepatoma cell lines (RRID: CVCL_0326); BxPC3: human pancreatic cancer cell lines (RRID: CVCL_0186); U87: human primary glioblastoma cell lines (RRID: CVCL_0022); DU145: human prostate cancer cell lines (RRID: CVCL_0105); MCF7: human breast cancer cell lines (RRID: CVCL_0031); HeLa: human cervical cancer cell lines (RRID: CVCL_0030); HCT116: human colon cancer cell lines (RRID: CVCL_0291). Cells were maintained in Dulbecco’s modified Eagle’s medium (DMEM, Gibco) supplemented with L-glutamine (Lonza) (2 mM), 10% fetal bovine serum (FBS, Hyclone), 1 × non-essential amino acids, and sodium pyruvate (1 mM). THLE-2 cells were maintained in THLE-2 Cell Complete Medium (Zhong Qiao Xin Zhou, Shanghai, China). Cells were incubated at 37 °C in a humidified incubator with 5% CO2. A549 cells were previously stored in the lab and other cell lines were a gift from Haishan Wang’s lab (Institute of Molecular and Cell Biology, Singapore). All cell lines were confirmed to be contamination-free.
(§2) Cell viability was assessed using the WST-1 assay, based on a previously reported method with slight modifications. Briefly, cells were seeded at 1 × 10^4 cells per well in 96-well plates and then treated with different doses of JH62 or DOX for 0–72 h. The cells used included non-cancer cells (MEF, AML12, WI-38, and THLE-2) and cancer cells (A549, HEPG2, HEP3B, BxPC3, U87, DU145, MCF7, HeLa, and HCT116). The WST-1 reagent (Roche, Shanghai, China) was added to each well (10% vol/vol final concentration), followed by incubation for 3 h at 37 °C. Absorbance at OD450 was measured using a microplate reader (Synergy H1; BioTek Instruments, Winooski, VT, USA).

[2] = tested on: non-cancer cells (MEF, AML12, WI-38, and THLE-2); experiment: WST-1 cell viability, panel of non-cancer cells; format: cell-based; settings: across non-cancer cells (MEF, AML12, WI-38, and THLE-2)
Experimental: as §2

[3] = tested on: HEP3B: human hepatoma cell lines; experiment: WST-1 cell viability, HEP3B; format: cell-based; settings: HEP3B (liver) cancer cell line
Source text: as §1, with “A549 cells were previously stored in the lab and other cell lines were a gift from Haishan Wang’s lab (Institute of Molecular and Cell Biology, Singapore). All cell lines were confirmed to be contamination-free.” left out
(§3) Cell viability was assessed using the WST-1 assay, based on a previously reported method with slight modifications. […] Absorbance at OD450 was measured using a microplate reader (Synergy H1; BioTek Instruments, Winooski, VT, USA).

[4] = tested on: U87: human primary glioblastoma cell lines; experiment: WST-1 cell viability, U87; format: cell-based; settings: U87 (glioblastoma) cancer cell line
Source text: as §1, with “A549 cells were previously stored in the lab and other cell lines were a gift from Haishan Wang’s lab (Institute of Molecular and Cell Biology, Singapore). All cell lines were confirmed to be contamination-free.” left out
as §3

[5] = tested on: A549 lung cancer cell colonies; experiment: Cell colony formation assay; format: cell-based, human; settings: compared to the control group
Source text: The cell colony formation assay, an in vitro method used to evaluate the proliferative capacity of cancer cells, was employed.

A549 cells [6] = experiment: Mitochondria JC-1 staining (mitochondrial membrane potential); format: cell-based, human; settings: A549, 25 μM, red fluorescence decreasing within 2–3 h, lowest by 4 h
Experimental: Mitochondrial membrane potential and mitochondria localization were assessed by JC-1 and MitoTracker staining based on previously published methods. A549 cells were cultured at 37 °C and 5% CO2 in Dulbecco’s modified Eagle’s medium (DMEM), supplemented with 10% heat-inactivated FBS (Thermo Fisher Scientific, Waltham, MA, USA) and L-Glutamine (Thermo Fisher Scientific, Waltham, MA, USA) (2 mM). An aliquot of 1 mL of JH62 (25 μM) solution was added to the cell cultures. […] Cells were washed with dilution buffer, and photos were taken using a microscope. For MitoTracker staining, cells grown on 12 mm diameter round glass coverslips in 24-well plates were incubated with MitoTracker Red diluted 1:2000 or 1:20,000 from a stock solution (1 mM) in culture medium for 45 min at 37 °C. Cells were then washed with PBS and fixed with ice-cold 3.2% paraformaldehyde in PBS for 20 min at room temperature. After washing, coverslips were mounted on glass slides using an appropriate mounting medium. […]
In cancer cells, mitochondria serve as central organelles for energy production and survival, critically influencing cell viability, immune evasion, tumor progression, and therapy resistance. […] We used the potential-sensitive fluorescent probe JC-1, which emits green fluorescence as a monomer at low concentrations and forms red-fluorescent aggregates in mitochondria with intact ΔΨm.

[7] = tested on: DU145: human prostate cancer cell lines; experiment: WST-1 cell viability, DU145; format: cell-based; settings: DU-145, DU145 (prostate) cancer cell line
Source text: as §1, with “A549 cells were previously stored in the lab and other cell lines were a gift from Haishan Wang’s lab (Institute of Molecular and Cell Biology, Singapore). All cell lines were confirmed to be contamination-free.” left out
as §3

A549 cells [8] = experiment: Chromosome staining experiment; format: cell-based, human; settings: A549, 5 μM DOX or 25 μM JH62 for 6 h
Experimental: Metaphase chromosome spreads were prepared from A549 cells. Briefly, A549 cells were cultured. After treatment with JH62 or DOX, cells were incubated with Colcemid (Gibco BRL; 0.2 μg/mL final concentration) for 2 h to arrest cells in metaphase. Cells were then subjected to hypotonic treatment in KCl (0.075 M) at 37 °C for 5 min, and fixed by repeated washing with ice-cold freshly prepared 3:1 (vol/vol) methanol:acetic acid. Chromosome spreads were prepared on premarked glass slides using the “drop-cryo” protocol. The chromosome suspension was dropped onto a slide. This was followed by adding three drops of 45% acetic acid and placing a coverslip over the suspension. The slide was then inverted and placed on dry ice for 15 min. The spreads were postfixed in 2.5% glutaraldehyde in cacodylate buffer (pH 7.4, 75 mM) for 15 min and washed with cacodylate buffer (0.1 M). The chromosomes were stained with Vista Green DNA dye (Cell Biolabs, Singapore). After staining, the preparations were washed in water for 5, 10, and 15 min, then dehydrated using a series of ethanol solutions as follows: 5 min in a 70% solution, 10 min in an 85% solution, and 15 min in 100% ethanol. Finally, slides were mounted with a permanent mounting medium, sealed, and analyzed by microscopy.

[9] = tested on: HCT116: human colon cancer cell lines; experiment: WST-1 cell viability, HCT116; format: cell-based; settings: HCT-116, HCT116 (colon) cancer cell line
Source text: as §1, with “A549 cells were previously stored in the lab and other cell lines were a gift from Haishan Wang’s lab (Institute of Molecular and Cell Biology, Singapore). All cell lines were confirmed to be contamination-free.” left out
as §3

## CCCCCCCC/C=C/CCCc1cc(=O)c2ccccc2[nH]1 [JH62, E-2-(tridec-4-en-1-yl)-quinolin-4(1H)-one]
[1]; A549 (lung) cancer cell line
  IC50: 14.8 ± 0.1 µM
[1]; A549, 12.5 μM
  reduced viability: 20%
[1]; A549, 12.5 μM, 32 h
  viability decreased: 32%
[1]; A549, 12.5 μM, 48 h
  viability decreased: 19%
[1]; A549, 25 μM
  reduced viability: 48%
[1]; A549, 25 μM, 32 h
  viability decreased: 65%
[1]; A549, 25 μM, 48 h
  viability decreased: 74%
[1]; A549, 50 μM
  reduced viability: 78%
[1]; A549, 50 μM, 32 h
  viability decreased: 84%
[1]; A549, 50 μM, 48 h
  viability decreased: 92%
[1]; Homo sapiens, A549, A549 (lung) cancer cell line
  IC50: 15 µM
[2]
  IC50: > 25 µM
[3]
  IC50: 10.8 ± 0.4 µM
[4]
  IC50: 10 ± 0.2 µM
[5]; 6.3 μM
  reduced the number of A549 lung cancer cell colonies: 34%
[5]; 12.5 μM
  reduced the number of A549 lung cancer cell colonies: 71%
A549 cells [6]
  mitochondrial membrane potential (JC-1 red fluorescence): disrupted the mitochondrial membrane potential
[7]
  IC50: 13.8 ± 3.3 µM
A549 cells [8]
  chromosome morphology: maintained normal morphology similar to the control
[9]
  IC50: 8.6 ± 0.1 µM
